Data published in patent US20250351832A1, “PHYTOCHEMICALS AS BIOPESTICIDES AND BIOSTIMULANTS” (KAY BEE BIO ORGANICS PVT. LTD., priority 2024, published 2025).
Where two headings read alike, the source gives them in different places.

Columns and labels:
Thrips [1] = conditions: Thrips on cotton leaves; dose 1 ml/gm/lit.; 10 insects/treatment; 48 hrs after application
Spodoptera litura [2] = conditions: Spodoptera litura on castor leaves; dose 1 ml/gm/lit.; 10 insects/treatment; 72 hrs after application
Alternaria alternata [3] = assay: Alternaria leaf spot/blight on inoculated tomato plants (Ex. 28); assay type: in vivo; conditions: tomato plants, Alternaria alternata; after 7 days; dose 1 ml/gm/lit
Spodoptera litura [4] = assay: whole plant or invertebrate; conditions: 72 h
Mite [5] = conditions: mite on okra plants, green house, dose 1 ml/gm/lit. spray; for % Mortality at 48 Hrs. / Total No. of dead insect at 48 Hrs.: 48 hrs after application; for % Corrected Mortality at 48 Hrs.: corrected for water control
[6] = Table 13, descriptive; no test described; cited from earlier work
Mealy Bug [7] = conditions: mealy bug on cotton plants, green house, dose 1 ml/gm/lit. spray; for % Mortality at 48 Hrs. / Total No. of dead insect at 48 Hrs.: 48 hrs after application; for % Corrected Mortality at 48 Hrs.: corrected for water control
Aphid [8] = conditions: Aphids on cotton plants, green house; dose 1 ml/gm/lit.; 10 insects/plant, 10 plants/treatment; 48 hrs
Thrips [9] = conditions: thrips on cotton plants, greenhouse, dose 1 ml/gm/lit. spray; for % Mortality at 48 Hrs. / Total No. of dead insect at 48 Hrs.: 48 hrs after application; for % Corrected Mortality at 48 Hrs.: corrected for water control
Thrips [10] = assay: whole plant or invertebrate; conditions: in Gossypium hirsutum, 48 h
Spodoptera litura [11] = conditions: Spodoptera litura 3rd instar on cabbage plants, dose 1 ml/gm/lit. spray; for % Mortality at 72 Hrs.: 72 hrs after application; for % Corrected Mortality at 72 Hrs.: corrected for water control
chili seedlings = assay: Response of chili plants, greenhouse growth (Ex. 31); assay type: in vivo; conditions: chili seedlings, dose 1 ml/gm/lit; for CCI 5th Day / Plant Height (cm) 5th Day: 5th day after application; for CCI 10th Day / Plant Height (cm) 10th Day: 10th day after application; for CCI % Increase over pre on 10th Day / Plant Height % Increase over pre on 10th Day / Root Lenght (cm) 10th Day / Stem Girth % Increase over pre on 10th Day / Root Lenght % Increase over control: 10th day; for Root Lenght % Increase over control: vs water control
Helicoverpa armigera [12] = conditions: Helicoverpa armigera on okra fruits, dose 1 ml/gm/lit., 72 Hrs.; for Total No. of dead insect at 72 Hrs.: 10 insects/treatment, 4 replications; for % Corrected Mortality at 72 Hrs.: corrected for water control
Aphid [13] = conditions: Dose 1 ml/gm/lit.; for Total No. of dead insect at 48 Hrs.: 10 insects/treatment, 4 replications, cotton leaves
Alternaria alternata [14] = assay: In vitro poisoned food technique against fungus (Ex. 20); assay type: cell-based
Mealy Bug [15] = conditions: Mealy Bug on cotton leaves, dose 1 ml/gm/lit., 48 Hrs.; for Total No. of dead insect at 48 Hrs.: 10 insects/treatment, 4 replications; for % Corrected Mortality at 48 Hrs.: corrected for water control
tomato seedlings = assay: Response of tomato plants, greenhouse growth (Ex. 30); assay type: in vivo; conditions: tomato seedlings, dose 1 ml/gm/lit; for Plant Height 5th Day / Stem Girth 5th Day / CCI 5th Day: 5th day after application; for Plant Height 10th Day / Stem Girth 10th Day / CCI 10th Day: 10th day after application; for Plant Height % Increase over pre on 10th Day / Stem Girth % Increase over pre on 10th Day / CCI % Increase over pre on 10th Day / Root Length (cm) 10th Day / Root Length % Increase over control: 10th day; for Root Length % Increase over control: vs water control
Mite [16] = conditions: Dose 1 ml/gm/lit.; for Total No. of dead insect at 48 Hrs.: 10 insects/treatment, 4 replications, okra leaves
Aphid [17] = assay: whole plant or invertebrate; conditions: 48 h
Helicoverpa armigera [18] = conditions: Helicoverpa armigera 3rd instar on chickpea plants, dose 1 ml/gm/lit. spray; for % Mortality at 72 Hrs.: 72 hrs after application; for % Corrected Mortality at 72 Hrs.: corrected for water control
[19] = read-out: % Corrected Mortality at 72 Hrs.
[20] = read-out: % Mortality at 72 Hrs.
[21] = read-out: % Corrected Mortality at 48 Hrs.
[22] = read-out: % Mortality at 48 Hrs.
[23] = poisoned food technique, PDA medium, dose 1 ml/gm/lit., after seven days

## Cc1ccc(C(C)C)cc1O [Carvacrol]
Thrips [1]
  Total No. of dead insect at 48 Hrs.: 3.50
Spodoptera litura [2]
  Total No. of dead insect at 72 Hrs.: 4.50
Alternaria alternata [3]
  % Disease reduction over Control: 47.93%
Spodoptera litura [4]; [19]
  mortality at 1 mL or g/L: 42.1%
Spodoptera litura [4]; [20]
  mortality at 1 mL or g/L: 45%
Mite [5]
  % Mortality at 48 Hrs.: 47.50%
  Total No. of dead insect at 48 Hrs.: 47.50
  % Corrected Mortality at 48 Hrs.: 44.74%
[6]
  Acaricidal Activity - Mode of action: Has acaricidal activities
  Antifungal Activity - Mode of action: Antifungal activities
  Antioxidant Activity - Mode of action: Antioxidant activities
  Bactericidal Activity - Mode of action: Exhibits antibacterial
  Insecticidal Activities - Mode of action: Insecticidal toxicities
  Nematicidal Activity - Mode of action: Effective against plant
Mealy Bug [7]
  % Mortality at 48 Hrs.: 65.00%
  Total No. of dead insect at 48 Hrs.: 65.00
  % Corrected Mortality at 48 Hrs.: 61.11%
Aphid [8]
  Total No. of dead insect at 48 Hrs.: 72.50
Thrips [9]
  % Mortality at 48 Hrs.: 32.50%
  Total No. of dead insect at 48 Hrs.: 32.50
  % Corrected Mortality at 48 Hrs.: 25.00%
Thrips [10]; [21]
  mortality at 1 mL or g/L: 25.7%
Thrips [10]; [22]
  mortality at 1 mL or g/L: 35%
Spodoptera litura [11]
  % Mortality at 72 Hrs.: 47.50%
  % Corrected Mortality at 72 Hrs.: 44.74%
Chili seedlings
  CCI 5th Day: 14.95
  Plant Height (cm) 5th Day: 6.33 cm
  CCI % Increase over pre on 10th Day: 64.84%
  Plant Height % Increase over pre on 10th Day: 65.77%
  Root Lenght (cm) 10th Day: 3.97 cm
  Stem Girth % Increase over pre on 10th Day: 49.25%
  CCI 10th Day: 15
  Plant Height (cm) 10th Day: 7.57 cm
  Root Lenght % Increase over control: 44.94%
Helicoverpa armigera [12]
  Total No. of dead insect at 72 Hrs.: 5.50
  % Mortality at 72 Hrs.: 55.00%
  % Corrected Mortality at 72 Hrs.: 55.00%
Aphid [13]
  Total No. of dead insect at 48 Hrs.: 7.00
  % Corrected Mortality at 48 Hrs.: 65.71%
  % Mortality at 48 Hrs.: 70.00%
Alternaria alternata [14]; [23]
  Mean colony Diameter (mm): 52.50 mm
Alternaria alternata [14]; poisoned food technique, PDA medium, dose 1 ml/gm/lit., after seven days, vs untreated control, read-out: % Inhibition of growth
  inhibition of growth at 1 mL or g/L: 40.3%
Mealy Bug [15]
  Total No. of dead insect at 48 Hrs.: 6.75
  % Mortality at 48 Hrs.: 67.50%
  % Corrected Mortality at 48 Hrs.: 65.79%
Tomato seedlings
  Plant Height 5th Day: 6.38 cm
  Stem Girth 5th Day: 2.05 mm
  Plant Height 10th Day: 7.23 cm
  Stem Girth 10th Day: 2.35 mm
  Plant Height % Increase over pre on 10th Day: 32.66%
  Stem Girth % Increase over pre on 10th Day: 63.42%
  CCI 5th Day: 13.62
  CCI % Increase over pre on 10th Day: 33.70%
  Root Length (cm) 10th Day: 4.25 cm
  CCI 10th Day: 15.87
  Root Length % Increase over control: 27.69%
Mite [16]
  Total No. of dead insect at 48 Hrs.: 4.25
  % Corrected Mortality at 48 Hrs.: 37.84%
  % Mortality at 48 Hrs.: 42.50%
Aphid [17]; [21]
  mortality at 1 mL or g/L: 67.7%
Aphid [17]; [22]
  mortality at 1 mL or g/L: 72.5%
Helicoverpa armigera [18]
  % Mortality at 72 Hrs.: 52.50%
  % Corrected Mortality at 72 Hrs.: 52.50%

## C/C=C\c1cc(OC)c(OC)cc1OC [β-Asarone]
Thrips [1]
  Total No. of dead insect at 48 Hrs.: 6.75
Spodoptera litura [2]
  Total No. of dead insect at 72 Hrs.: 6.00
Alternaria alternata [3]
  % Disease reduction over Control: 64.46%
Spodoptera litura [4]; [19]
  mortality at 1 mL or g/L: 57.9%
Spodoptera litura [4]; [20]
  mortality at 1 mL or g/L: 60%
Mite [5]
  % Mortality at 48 Hrs.: 22.50%
  Total No. of dead insect at 48 Hrs.: 22.50
  % Corrected Mortality at 48 Hrs.: 18.42%
[6]
  Antifungal Activity - Mode of action: Completely inhibited
  Insecticidal Activities - Mode of action: Reductions in oviposition
  Nematicidal Activity - Mode of action: Act as potent nematicide
Mealy Bug [7]
  % Mortality at 48 Hrs.: 35.00%
  Total No. of dead insect at 48 Hrs.: 35.00
  % Corrected Mortality at 48 Hrs.: 27.78%
Aphid [8]
  Total No. of dead insect at 48 Hrs.: 70.00
Thrips [9]
  % Mortality at 48 Hrs.: 65.00%
  Total No. of dead insect at 48 Hrs.: 65.00
  % Corrected Mortality at 48 Hrs.: 61.11%
Thrips [10]; [21]
  mortality at 1 mL or g/L: 62.9%
Thrips [10]; [22]
  mortality at 1 mL or g/L: 67.5%
Spodoptera litura [11]
  % Mortality at 72 Hrs.: 55.00%
  % Corrected Mortality at 72 Hrs.: 52.63%
Chili seedlings
  CCI 5th Day: 9.58
  Plant Height (cm) 5th Day: 5.70 cm
  CCI % Increase over pre on 10th Day: 40.02%
  Plant Height % Increase over pre on 10th Day: 51.59%
  Root Lenght (cm) 10th Day: 3.17 cm
  Stem Girth % Increase over pre on 10th Day: 40.46%
  CCI 10th Day: 12.49
  Plant Height (cm) 10th Day: 7.61 cm
  Root Lenght % Increase over control: 16.00%
Helicoverpa armigera [12]
  Total No. of dead insect at 72 Hrs.: 5.00
  % Mortality at 72 Hrs.: 50.00%
  % Corrected Mortality at 72 Hrs.: 50.00%
Aphid [13]
  Total No. of dead insect at 48 Hrs.: 7.25
  % Corrected Mortality at 48 Hrs.: 68.57%
  % Mortality at 48 Hrs.: 72.50%
Alternaria alternata [14]; […]
  inhibition of growth at 1 mL or g/L: 54%
Alternaria alternata [14]; [23]
  Mean colony Diameter (mm): 40.50 mm
Mealy Bug [15]
  Total No. of dead insect at 48 Hrs.: 3.00
  % Mortality at 48 Hrs.: 30.00%
  % Corrected Mortality at 48 Hrs.: 26.32%
Tomato seedlings
  Plant Height 5th Day: 6.72 cm
  Stem Girth 5th Day: 1.72 mm
  Plant Height 10th Day: 7.24 cm
  Stem Girth 10th Day: 2.45 mm
  Plant Height % Increase over pre on 10th Day: 27.69%
  Stem Girth % Increase over pre on 10th Day: 56.32%
  CCI 5th Day: 13.45
  CCI % Increase over pre on 10th Day: 29.08%
  Root Length (cm) 10th Day: 4.43 cm
  CCI 10th Day: 14.56
  Root Length % Increase over control: 33.31%
Mite [16]
  Total No. of dead insect at 48 Hrs.: 2.50
  % Corrected Mortality at 48 Hrs.: 18.92%
  % Mortality at 48 Hrs.: 25.00%
Aphid [17]; [21]
  mortality at 1 mL or g/L: 64.7%
Aphid [17]; [22]
  mortality at 1 mL or g/L: 70%
Helicoverpa armigera [18]
  % Mortality at 72 Hrs.: 52.50%
  % Corrected Mortality at 72 Hrs.: 52.50%
